# Assay: Inhibition of Acetyl-CoA acetyltransferase (unknown origin)
row,Compound,IC50
1,CC1CCC2(CC1)Nc1ccccc1N=C2NCc1ccccc1Cl (stereo unspecified),171 nM
2,Clc1cccc(CNC2=Nc3ccccc3NC23CCNCC3)c1,22 nM
3,Cc1ccccc1CNC1=Nc2ccccc2NC12CCNCC2,25 nM
4,CC1CCC2(CC1)NC=CN=C2NCc1ccccc1Cl (stereo unspecified),> 1000 nM
5,Clc1ccccc1CNC1=Nc2ccccc2NC12CCNCC2,22 nM
6,Cc1ccc(CNC2=Nc3ccccc3NC23CCCCC3)cc1,269 nM

# Reference: BindingDB's records for PubMed 38171251 (Indian Institute of Technology (Banaras Hindu University))
